Measurements reported in patent publication US8445539B2, “Alpha-aminoamide derivatives useful in the treatment of psychiatric disorders” (priority 2007, dated 2013).

Key:
NMDA receptor complex = experiment: Inhibition of NMDA receptor complex, whole cell patch clamp in cortical neurons; format: cell-based; conditions: primary rat cortical neurons; holding -70 mV; NMDA 100 μM + glycine 10 μM; read-out: IC50 of NMDA-induced currents
Method: Cortical neurons were prepared from embryonic Wistar rats (E17-E19). A female rat at date 17-19 of pregnancy was anesthetized and sacrificed. The foetuses (n=4-5) were dissected and placed in ice-cold Hank's solution (Hank's solution (Life tech. 14170-088)+glucose 30%+Pen-Strep 100× (Life Tech. 15140-122) 100 U-100 μg/mL and Hepes-NaOH 5 mM).
The brain of the foetuses was cut in two halves, and each cortex was cut in smaller parts with a scissors, the pieces were transferred to a 15 mL centrifuge tube using a 5 mL pipette and washed twice with Hank's solution. […]
Cells were counted and diluted in Neurobasal medium to a concentration of 400000 cells per poly-D-lysine 5 μg/mL treated Petri dish. […]
Experiments on cortical neurons were carried out using standard whole cell patch clamp methods (Hamill et al., 1981. Pflügers Archly: European Journal of Physiology 391(2):85-100). Membrane currents were recorded and filtered at 5 kHz with an Axon Axopatch 200B amplifier and data digitized with an Axon Digidata 1322A (Axon Instruments, CA, USA). […]
Data were analyzed using Clampfit 9 (Axon Instruments, CA) and Origin 7.5 (Microcal Inc., Northampton, Mass., USA) software. Data points and results were expressed as arithmetic mean±S.E. […]

MAO-B = MAO-B (Rattus norvegicus, UniProt P19643); experiment: biochemical
MAO-B, sequence (P19643 whole entry): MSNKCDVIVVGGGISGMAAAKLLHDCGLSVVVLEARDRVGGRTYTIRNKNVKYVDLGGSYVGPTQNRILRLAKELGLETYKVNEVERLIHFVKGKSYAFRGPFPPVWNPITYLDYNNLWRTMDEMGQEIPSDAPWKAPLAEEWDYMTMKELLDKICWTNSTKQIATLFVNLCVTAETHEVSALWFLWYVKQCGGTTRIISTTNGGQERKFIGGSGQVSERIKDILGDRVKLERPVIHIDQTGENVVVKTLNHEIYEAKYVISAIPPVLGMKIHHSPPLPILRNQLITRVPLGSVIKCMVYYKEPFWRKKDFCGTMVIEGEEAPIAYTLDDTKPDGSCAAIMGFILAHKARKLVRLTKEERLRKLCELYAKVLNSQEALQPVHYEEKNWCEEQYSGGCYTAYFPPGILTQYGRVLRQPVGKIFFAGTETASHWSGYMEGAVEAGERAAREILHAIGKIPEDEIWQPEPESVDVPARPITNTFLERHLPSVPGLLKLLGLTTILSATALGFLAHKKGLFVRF
Method: The crude homogenate was centrifuged at 2220 rpm for 10 minutes at +4° C. and the supernatant recovered. The pellet was homogenized and centrifuged again. The two supernatants were pooled and centrifuged at 9250 rpm for 10 minutes. The pellet was resuspended in fresh buffer and centrifuged at 11250 rpm for 10 minutes at +4° C. The resulting pellet was stored at −80° C.
The mitochondrial pellet (500 μg protein) was resuspended in 0.1 M phosphate buffer (pH 7.4). 500 μl of the suspension were added to a 50 μl solution of the test compound or buffer, and incubated for 30 min at 37° C. (preincubation) then the substrate (50 μl) was added. […] (^14C-PEA, 0.5 μM).
The amount of neutral and/or acidic metabolites formed as a result of MAO activity was obtained by measuring the radioactivity of the eluate.
The activity of MAO in the sample, corresponding to a percentage of radioactivity compared with the control activity in the absence of the inhibitor, was expressed as nmoles of substrate transformed/mg protein/min.

[1] = system: MK-801 induced hyperlocomotion; experiment: MK-801 induced hyperlocomotion in mice; format: in vivo; conditions: MK-801 induced locomotion in mice
Method: Glutamate N-methyl-D-aspartate (NMDA) receptor antagonists, like phencyclidine (PCP) or MK-801, elicit schizophrenia-like symptoms in humans and behavioural abnormalities in animals, such as hyperactivity. Atypical antipsychotics decrease hyperlocomotion produced in mice by MK-801 or PCP and this represents a commonly used animal models predictive of efficacy against the symptoms of schizophrenia. Vehicle or compound was injected 30-35 min before the animal entered the activity chambers. Hyperlocomotion was produced in mice by administration of MK-801 (0.3 mg/kg) 15 min before the animal entered the activity chambers (i.e., […] min after vehicle or compound administration) and the total distance traveled in centimeters was determined during a 15-30 min session. The increase in MK-801-induced total distance traveled were attenuated by active compounds.

marble burying behaviour = experiment: Marble Burying test; format: in vivo; conditions: 80 mg/kg po; 30 min before test; CD1 mice; FIG. 1
Description: The Marble Burying Test is considered an animal model of anxiety/obsessive-compulsive disorder (OCD). Mice which are placed individually in a cage containing a number of glass marbles spontaneously tend to bury the glass marbles present.
Several compounds which attenuate anxiety, depression, psychosis or obsessive-compulsive disorders affect this behaviour reducing the number of marbles buried. Therefore the test has predictive validity for anti-anxiety and anti-OCD potential compounds.
CD1 mice were injected with ralfinamide at the doses of 10, 30, 60 and 80 mg/kg, po; fluoxetine (FLX) at 10 mg/kg, sc or saline and returned to their home cage. After 30 min (ralfinamide) or 60 min (fluoxetine), mice were individually placed in a new cage contained 12 evenly spaced glass marbles. After 30 min mice were removed from the cages and the number of glasses buried for at least two-thirds in the sawdust was counted.
One-way ANOVA followed by Bonferroni's multiple comparison test; n=6-8 mice per group *p<0.05; p***<0.001 versus control group

For `C[C@H](NCc1ccc(OCc2ccccc2F)cc1)C(N)=O` [Ralfinamide methanesulfonate, (S)-(+)-2-[4-(2-fluorobenzyloxy)benzylamino]propanamide], the IC50 (NMDA receptor complex) was 7.3 µM, the IC50 (MAO-B) was 0.132 µM and the “Activity in schizophrenia animal model (Example 5)” value [1] was “active”. The “Number of buried marbles” value (marble burying behaviour) was “significantly reduces”.
